Results reported in US5834481A, “Heterotricyclically substituted phenyl-cyclohexane-carboxylic acid derivatives” (Bayer Aktiengesellschaft, priority 1993, dated 1998).

These molecules were tested on smooth muscle cells obtained from the aortas of rats (assay: Inhibition of the proliferation of smooth muscle cells (3H-thymidine incorporation)). Details: semi-maximum inhibition of the thymidine incorporation produced by 10% FCS; rat aortic smooth muscle cells.
Type: cell-based
Experimental: Investigation of the inhibition of the proliferation of smooth muscle cells by the compounds according to the invention
To determine the antiproliferative action of the compounds, smooth muscle cells are used which are obtained from the aortas of rats by the media explant technique [R. Ross, J. Cell, Biol. 50, 172, 1971]. The cells are inoculated into suitable culture dishes, as a rule 96-hole plates, and cultured at 37° C. in 5% CO2 for 2-3 days in medium 199 containing, 7.5% FCS and 7.5% NCS, 2mM L-glutamine and 15 mM HEPES, pH 7.4. The cells are then synchronized for 2-3 days by withdrawal of serum and then stimulated into growth using […] or other factors. Test compounds are simultaneously added. After 16-20 hours, 1 μCi ^3 H-thymidine is added and after a further 4 hours the incorporation of this substance into the TCA-precipitable DNA of the cells is determined. To determine the IC50 values, the active compound concentration is calculated which, on sequential dilution of the active compound, causes semi-maximum inhibition of the thymidine incorporation produced by 10% FCS.

Compound	IC50 [nM]
Cc1cc(C)c2c3c(n(Cc4ccc(C5CCCCC5C(=O)N[C@H](CO)c5ccccc5)cc4)c2n1)CCCC3 (single isomer, unassigned) [Example 27]	580
O=C(N[C@H](CO)c1ccccc1)C1CCCCC1c1ccc(Cn2c3ccccc3c3ccncc32)cc1 (single isomer, unassigned) [Example 30]	0.1
O=C(N[C@H](CO)c1ccccc1)C1CCCCC1c1ccc(Cn2c3ccccc3c3cccnc32)cc1 (single isomer, unassigned) [Example 32]	2
O=C(N[C@H](CO)c1ccccc1)C1CCCCC1c1ccc(Cn2c3c(c4cccnc42)CCCCC3)cc1 (single isomer, unassigned) [Example 50]	0.9
